One experiment concerns the target Tubulin (Homo sapiens) (UniProt P68371+Q9H4B7+P0DPH7+P68366+Q13509+Q71U36+P04350+Q3ZCM7+P07437+P68363+Q9BQE3+Q6PEY2+Q13885+Q9BVA1+Q9BUF5). In words: Inhibition of tubulin polymerization (unknown origin) at 3 uM measured every 60 secs for 90 mins by microplate reader based analysis. In kind it is protein-complex assay.
For another experiment, the system named is 4T1. In words: Antitumor activity against mouse 4T1 cells xenografted in BALB/c mouse model assessed as tumor growth inhibition rate at 10 mg/kg, iv measured every two days for 2 weeks relative to control. In kind it is functional. Particulars: 4T1, 336 h, read-out: TGI.
The subject of experiment [1] is MCF7. The experiment is described as follows: Antiproliferative activity against human MCF7 cells measured after 72 hrs by MTT assay. In kind it is functional, cell-based. As to conditions: MCF7, 72 h. On the technique in general: Tetrazolium assays rely on reduction of a dye to a coloured formazan, in cell work by metabolically active cells.
Another experiment has as its system SGC-7901. In words: Antiproliferative activity against human SGC-7901 cells measured after 72 hrs by MTT assay. In kind it is functional, cell-based. As to conditions: SGC-7901, 72 h.
Another experiment concerns A549. The experiment is described as follows: Antiproliferative activity against human A549 cells measured after 72 hrs by MTT assay. As to conditions: A549, 72 h. In kind it is functional, cell-based.
The subject of experiment [2] is MCF7. The experiment is described as follows: Induction of cell cycle arrest in human MCF7 cells assessed as accumulation of cells at G0/G1 phase at 15 nM incubated for 24 hrs by PI staining based flow cytometry analysis (reference value: 69.67%). In kind it is functional. On the technique in general: In flow cytometry, cells or beads pass a laser one at a time.
In experiment [3] the test system is MCF7. The experiment is described as follows: Induction of cell cycle arrest in human MCF7 cells assessed as accumulation of cells at G0/G1 phase at 30 nM incubated for 24 hrs by PI staining based flow cytometry analysis (reference value: 69.67%). In kind it is functional.
Experiment [4] concerns MCF7. In words: Induction of cell cycle arrest in human MCF7 cells assessed as accumulation of cells at S phase at 15 nM incubated for 24 hrs by PI staining based flow cytometry analysis (reference value: 14.58 %). In kind it is functional.
Experiment [5] deals with MCF7. In words: Induction of cell cycle arrest in human MCF7 cells assessed as accumulation of cells at S phase at 30 nM incubated for 24 hrs by PI staining based flow cytometry analysis (reference value: 14.58%). In kind it is functional.
Experiment [6] relates to MCF7. In words: Induction of cell cycle arrest in human MCF7 cells assessed as accumulation of cells at G2/M phase at 15 nM incubated for 24 hrs by PI staining based flow cytometry analysis (reference value: 14.36%). In kind it is functional.
Experiment [7] concerns MCF7. In words: Induction of cell cycle arrest in human MCF7 cells assessed as accumulation of cells at G2/M phase at 30 nM incubated for 24 hrs by PI staining based flow cytometry analysis (reference value: 14.36%). In kind it is functional.

Experimental findings from ChEMBL document CHEMBL5500332, “Structure-based approaches for the design of 6-aryl-1-(3,4,5-trimethoxyphenyl)-1H-benzo[d][1,2,3]triazoles as tubulin polymerization inhibitors” (Eur J Med Chem, 2024) are described below.

Each structure is given as a SMILES string. Activity calls are given as the source filed them. No cut-off for these calls is given here.

On to `CC(=O)O[C@H]1C(=O)[C@@]2(C)[C@H]([C@H](OC(=O)c3ccccc3)[C@]3(O)C[C@H](OC(=O)[C@H](O)[C@@H](NC(=O)c4ccccc4)c4ccccc4)C(C)=C1C3(C)C)[C@]1(OC(C)=O)CO[C@@H]1C[C@@H]2O` [PACLITAXEL], for which the inhibition entry on Tubulin (Homo sapiens) was “inactive”. For the same compound, the inhibition in vivo at 10 mg/kg in the experiment with 4T1 turned out to be 72.1%.
For `COc1cc(-n2nnc3ccc(-c4ccccc4Cl)cc32)cc(OC)c1OC`, the values for the IC50 with MCF7 [1], in the experiment on SGC-7901 and in the experiment on A549 were 8360 nM, 6340 nM and 9560 nM, respectively.
For `COc1cc(OC)cc(-n2nnc3ccc(-c4ccc(OC)c(O)c4)cc32)c1`, in that order: 726 nM, 1070 nM and 6460 nM.
As for `COc1cc(-n2nnc3ccc(-c4ccc(O)cc4)cc32)cc(OC)c1OC`, the IC50 (as a rule, the concentration that inhibits the measured activity by half) with MCF7 [1] was 1300 nM; with SGC-7901, 4240 nM; with A549 it was 5110 nM.
For `COc1cc(-n2nnc3ccc(-c4ccc([N+](=O)[O-])cc4)cc32)cc(OC)c1OC`, in that order: 3100 nM, 3170 nM and > 10000 nM.
For `COc1cc(-n2nnc3ccc(-c4ccc(C(C)=O)cc4)cc32)cc(OC)c1OC`, in that order: 3090 nM, 4850 nM and 2570 nM.
For `COc1cc(-n2nnc3ccc(-c4cccc([N+](=O)[O-])c4)cc32)cc(OC)c1OC` the same measures were 3800 nM, 6670 nM and 1940 nM.
Regarding `COc1ccc(-c2ccc3nnn(-c4cc(OC)c(OC)c(OC)c4)c3c2)cc1`, the IC50 came out at 212 nM with MCF7 [1], 447 nM with SGC-7901 and 1400 nM with A549.
For `COc1ccc(-c2ccc3ncn(-c4cc(OC)c(OC)c(OC)c4)c3c2)cc1O` the same measures were 42 nM, 45 nM and 210 nM.
As to `COc1cccc(-c2ccc3nnn(-c4cc(OC)c(OC)c(OC)c4)c3c2)c1`, the IC50 came out at 3280 nM in the experiment on MCF7 [1], 8120 nM with SGC-7901 and 6850 nM in the experiment with A549.
For `COc1cc(-n2nnc3ccc(-c4cccc(O)c4)cc32)cc(OC)c1OC` the same measures were 257 nM, 1200 nM and 3530 nM.
For `COc1cc(-n2nnc3ccc(-c4cccc(C)c4)cc32)cc(OC)c1OC` the same measures were 212 nM, 412 nM and 2450 nM.
Regarding `COc1cc2c(c(OC)c1OC)-c1ccc(OC)c(=O)cc1[C@@H](NC(C)=O)CC2` [COLCHICINE], the results for the IC50 with MCF7 [1] and with SGC-7901 were 30 nM and 12 nM, respectively. The Activity in the experiment with MCF7 [2] turned out to be 37.19%; in the experiment with MCF7 [3], 8.87%; with MCF7 [4], 24.77%; with MCF7 [5] it was 28.2%; in the experiment on MCF7 [6], 35.05%; with MCF7 [7] it was 63.44%.
With `COc1cc(-n2nnc3ccc(-c4ccc(Cl)cc4Cl)cc32)cc(OC)c1OC`, the IC50 in the experiment on MCF7 [1] was 6570 nM; in the experiment with SGC-7901, 2840 nM; with A549, > 10000 nM.
For `COc1cc(-n2nnc3ccc(-c4ccc(C(F)(F)F)cc4)cc32)cc(OC)c1OC` the same measures were 3390 nM, 6600 nM and 5070 nM.
For `COc1cc(-n2nnc3ccc(-c4cccc(F)c4)cc32)cc(OC)c1OC`, in that order: 7490 nM, 2980 nM and 7240 nM.
Take `COc1cc(-n2nnc3ccc(-c4ccc(Cl)cc4)cc32)cc(OC)c1OC`: the results for the IC50 in the experiment with MCF7 [1], in the experiment on SGC-7901 and in the experiment on A549 were 1520 nM, 1460 nM and 3750 nM, respectively.
For `COc1cc(-n2nnc3ccc(-c4ccc(F)cc4)cc32)cc(OC)c1OC`, in that order: 1250 nM, 789 nM and 2150 nM.
For `COc1cc(-n2nnc3ccc(-c4ccc(C)cc4F)cc32)cc(OC)c1OC`, in that order: 92 nM, 893 nM and 1070 nM.
For `COc1ccccc1-c1ccc2nnn(-c3cc(OC)c(OC)c(OC)c3)c2c1`, in that order: 3270 nM, 1970 nM and 6500 nM.
As to `COc1cc(-c2ccc3nnn(-c4cc(OC)c(OC)c(OC)c4)c3c2)cc(OC)c1OC`, the IC50 was > 10000 nM in the experiment on MCF7 [1], > 10000 nM with SGC-7901 and 4790 nM with A549.
Take `COc1ccc(-c2ccc3nnn(-c4ccc(OC)c(OC)c4)c3c2)cc1O`: the IC50 in the experiment on MCF7 [1] turned out to be 346 nM; in the experiment with SGC-7901, 188 nM; in the experiment on A549, 3930 nM.
For `COc1cc(-n2nnc3ccc(-c4cccc(Cl)c4)cc32)cc(OC)c1OC`, in that order: 2280 nM, 1480 nM and 4500 nM.
For `COc1cc(-n2nnc3ccc(-c4ccccc4)cc32)cc(OC)c1OC`, in that order: 242 nM, 1820 nM and 1980 nM.
For `CCOc1ccc(-c2ccc3nnn(-c4cc(OC)c(OC)c(OC)c4)c3c2)cc1`, in that order: 8250 nM, > 10000 nM and 2690 nM.
For the compound `COc1cc(-n2nnc3ccc(-c4ccc(C)cc4)cc32)cc(OC)c1OC`, the IC50 was 330 nM with MCF7 [1], 529 nM in the experiment on SGC-7901 and 1400 nM in the experiment with A549.
